{"source": "patent US20050101618A1", "about": "“Selective erbB2 inhibitor/anti-erbB antibody combinations in the treatment of cancer” (Pfizer Inc, priority 2003, published 2005)", "key": {"[1]": {"system": "BT-474 human breast adenocarcinoma", "experiment": "BT-474 xenograft tumor growth inhibition in athymic female mice", "assay_type": "in vivo", "method": "The activity of the compounds of formula 1, in vivo, can be determined by the amount of inhibition of tumor growth by a test compound relative to a control. The tumor growth inhibitory effects of various compounds are measured according to the method of Corbett T. H., et al., “Tumor Induction Relationships in Development of Transplantable Cancers of the Colon in Mice for Chemotherapy Assays, with a Note on Carcinogen Structure”, Cancer Res., 35, 2434-2439 (1975) and Corbett T. H., et al., “A Mouse Colon-tumor Model for Experimental Therapy”, Cancer Chemother. Rep. (Part 2)”, 5, 169-186 (1975), with slight modifications. Tumors are induced in the left flank by subcutaneous (sc) injection of 5 million log phase cultured tumor cells (BT-474 human breast adenocarcinoma) suspended in Matrigel (1:1 in PBS). […] Rep., 3, 1-104 (1972). Results are expressed as percent inhibition, according to the formula: Inhibition (%)=(TuWcontrol−TuWtest)/TuWcontrol×100%. The flank site of tumor implantation provides reproducible dose/response effects for a variety of chemotherapeutic agents, and the method of measurement (tumor diameter) is a reliable method for assessing tumor growth rates.\nStatistical Analysis: The statistical analysis of tumor growth was done using SAS Version 8, PROC GLM by Non-clinical statistical group."}, "[2]": {"experiment": "Whole blood pharmacokinetics of agent 182 in BT-474 tumor-bearing mice (LC-MS/MS)", "assay_type": "in vivo", "conditions": "for Cmax: mouse; for Cave0-2 h of Agent 182: day 28", "method": "(§1) Whole blood samples (˜50 μl) were collected at 0.5, 1, 2, 4 & 8 h post-dose on day 28 for PK analysis as described below. Tumors were isolated 0.5 h post-dose on day 28 for PD analysis by ELISA.\nBlood Sample Analysis: Aliquots (100 μL) of whole blood were diluted with 100 μL acetonitrile (25%) containing an internal standard (CP-702,453, 0.5 μg/ml). Samples were extracted with methyl-tert-butyl ether (MTBE) and 0.1M sodium hydroxide by liquid-liquid extraction using a 96-well technology. After brief vortexing, samples were centrifuged (3000 rpm for 10 min) and the supernatant was transferred into a 96-well plate and evaporated to dryness at 40° C. under a slow stream of nitrogen gas. The residue was reconstituted with 200 μL of 25% acetonitrile and vortexed for approximately 2 min.\nThe mobile phase was delivered as 90% 10 mM ammonium acetate with 0.1% formic acid and 10% acetonitrile for the first 1 min followed by a linear gradient from 10% to 90% acetonitrile over 1 min. Then the mobile phase was delivered isocratically at 90% acetonitrile for 1 min before a subsequent gradient back to 10% acetonitrile over 0.1 min. The column was then allowed to re-equilibrate at 90% 10 mM ammonium acetate with 0.1% formic acid and 10% acetonitrile for 1.0 min before the next sample injection.\nData collection and integration were accomplished using Analyst (version 1.2). The ratio of peak area responses of drug relative to internal standard was used to construct a standard curve using a linear least squares regression with a 1/x weighting. The dynamic range of the assay was 1.0 to 1000 ng/mL. The performance of the assay was monitored by inclusion of quality control samples prepared in mouse whole blood from a separate weighing. Further details are located in notebook #62874.\nPK Data Calculation: Pharmacokinetic parameters were determined by the noncompartmental methods using WinNonLin™, version 3.2. The maximum whole blood concentration (Cmax) and the time at which this concentration was achieved (Tmax) were directly taken from the raw data. Area under the whole blood concentration versus time curve (AUC) was calculated using linear trapezoidal approximation. For estimation of the means and pharmacokinetic parameters, concentrations at the 0 hr and those <LLOQ (1 ng/mL) were assumed to be 0 ng/mL. The means were calculated only if more than 50% of the data exceeded LLOQ of the assay."}, "[3]": {"target": "T1, erbB2-autophosphorylation (p-erbB2) (Homo sapiens, UniProt P04626)", "T1 construct": "endogenous in cells; host or cells: BT-474 human breast adenocarcinoma cells grown as subcutaneous xenografts in female athymic mice", "T1 sequence (P04626 23-1255)": "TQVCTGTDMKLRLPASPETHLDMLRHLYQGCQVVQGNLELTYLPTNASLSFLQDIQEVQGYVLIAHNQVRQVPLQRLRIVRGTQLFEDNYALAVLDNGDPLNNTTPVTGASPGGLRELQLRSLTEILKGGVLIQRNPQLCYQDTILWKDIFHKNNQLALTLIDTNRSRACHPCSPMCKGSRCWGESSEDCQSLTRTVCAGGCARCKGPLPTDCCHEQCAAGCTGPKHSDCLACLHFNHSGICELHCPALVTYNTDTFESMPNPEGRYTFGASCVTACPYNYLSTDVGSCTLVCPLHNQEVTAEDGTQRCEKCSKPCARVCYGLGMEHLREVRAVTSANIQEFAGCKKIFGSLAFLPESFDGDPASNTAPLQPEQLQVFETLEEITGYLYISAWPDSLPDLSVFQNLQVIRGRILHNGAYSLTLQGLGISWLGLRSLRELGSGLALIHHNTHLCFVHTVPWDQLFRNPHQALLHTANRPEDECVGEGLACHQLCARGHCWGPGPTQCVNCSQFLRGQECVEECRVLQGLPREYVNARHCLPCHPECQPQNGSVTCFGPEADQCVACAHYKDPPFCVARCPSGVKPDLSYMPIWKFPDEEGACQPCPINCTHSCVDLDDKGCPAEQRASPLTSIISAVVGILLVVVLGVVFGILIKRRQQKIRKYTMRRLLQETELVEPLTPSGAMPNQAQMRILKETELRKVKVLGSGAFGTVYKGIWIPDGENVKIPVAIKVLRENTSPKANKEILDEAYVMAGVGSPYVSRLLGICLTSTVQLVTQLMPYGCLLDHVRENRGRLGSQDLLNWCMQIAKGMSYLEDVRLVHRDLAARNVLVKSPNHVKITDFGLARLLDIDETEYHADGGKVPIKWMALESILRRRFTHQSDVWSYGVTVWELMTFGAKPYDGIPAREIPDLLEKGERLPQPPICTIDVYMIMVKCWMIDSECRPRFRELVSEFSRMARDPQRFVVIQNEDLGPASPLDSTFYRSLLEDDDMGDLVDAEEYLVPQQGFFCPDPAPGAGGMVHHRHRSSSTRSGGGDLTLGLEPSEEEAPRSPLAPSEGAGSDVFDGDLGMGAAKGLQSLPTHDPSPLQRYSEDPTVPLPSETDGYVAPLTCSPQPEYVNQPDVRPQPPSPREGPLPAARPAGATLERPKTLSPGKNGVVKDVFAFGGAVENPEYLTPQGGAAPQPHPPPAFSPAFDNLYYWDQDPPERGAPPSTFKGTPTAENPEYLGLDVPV", "experiment": "Tumor p-erbB2 reduction (PD) by ELISA in BT-474 tumor-bearing mice", "assay_type": "in vivo", "conditions": "0.5 hr after dosing on day 28", "method": "as §1\nThe p-erbB2 levels, i.e., the level of the phosphorylated form of erbB2, were also determined in tumor samples of all groups at 0.5 hr post-dosing on day 28 (Table 5)."}, "[4]": {"experiment": "Body weight and tolerability in BT-474 tumor-bearing mice", "protocol": "Cells were inoculated SC (5 million cells/animal) into female athymic mice. […] The tumor measurements and body weight changes were obtained on days 1, 5, 8, 12, 15, 19, 22, 26 and 28. Tumor volume was calculated by the following formula: Tumor volume (mm^3)=(W×W)/2×L (L=length & W=width).\n• Values given represent the average tumor volume (mm^3) ±SE; Values in parenthesis are the average body weight (g). • % Growth Inhibition=[Tumor volume on day 28 of treated group (mm^3)×100/Tumor volume on day 28 of vehicle group (mm^3)]−100 • % Regression=[Tumor volume on day 28 (mm^3)×100/Tumor volume on day 1(mm^3)]−100"}}, "data": [{"smiles": "COCC(=O)NC/C=C/c1ccc2ncnc(Nc3ccc(Oc4ccc(C)nc4)c(C)c3)c2c1", "note": "[Agent 182, E-2-Methoxy-N-(3-{4-[3-methyl-4-(6-methyl-pyridin-3-yloxy)-phenylamino]-quinazolin-6-yl}-allyl)-acetamide]", "values": [{"measurement": "% Growth inhibition", "setting": "[1]; 28 days, Agent 182 50 mg/kg PO QD", "value": 40, "unit": "%"}, {"measurement": "Tumor volume Day 28", "setting": "[1]; Agent 182 25 mg/kg PO QD", "value": "327 ± 45", "unit": "mm^3"}, {"measurement": "Tumor volume Day 28", "setting": "[1]; Agent 182 50 mg/kg PO QD", "value": "246 ± 36", "unit": "mm^3"}, {"measurement": "Efficacy against BT-474 tumors which over-express erbB2", "setting": "[1]; background statement", "value": "efficacious"}, {"measurement": "Cmax", "setting": "[2]; female, athymic, whole blood, po, 25 mg/kg", "value": 365, "unit": "ng/mL"}, {"measurement": "Cmax", "setting": "[2]; female, athymic, whole blood, po, 50 mg/kg", "value": "2440 ± 740", "unit": "ng/mL"}, {"measurement": "Cmax", "setting": "[2]; in vivo, 25 mg/kg group, earlier observations", "value": "417 to 967", "unit": "ng/mL"}, {"measurement": "Cave0-2 h of Agent 182", "setting": "[2]; whole blood, Agent 182 25 mg/kg PO QD", "value": "186 ± 71", "unit": "ng/mL"}, {"measurement": "Cave0-2 h of Agent 182", "setting": "[2]; whole blood, Agent 182 50 mg/kg PO QD", "value": "1050 ± 330", "unit": "ng/mL"}, {"measurement": "% Reduction of erbB2-autophosphorylation", "setting": "[3]; Agent 182 25 mg/kg PO QD, 25 mg/kg", "value": "16 ± 5 (N = 3) %"}, {"measurement": "% Reduction of erbB2-autophosphorylation", "setting": "[3]; Agent 182 25 mg/kg PO QD, listed as agent 182, 25 mg/kg", "value": "Approximately 16%"}, {"measurement": "% Reduction of erbB2-autophosphorylation", "setting": "[3]; Agent 182 50 mg/kg PO QD", "value": "57 ± 5 (N = 4) %"}, {"measurement": "Average body weight Day 1", "setting": "[4]; Agent 182 25 mg/kg PO QD", "value": "(21) g"}, {"measurement": "Average body weight Day 1", "setting": "[4]; Agent 182 50 mg/kg PO QD", "value": "(23) g"}, {"measurement": "Average body weight Day 28", "setting": "[4]; Agent 182 25 mg/kg PO QD", "value": "(23) g"}, {"measurement": "Average body weight Day 28", "setting": "[4]; Agent 182 50 mg/kg PO QD", "value": "(25) g"}]}]}
